According to publication PMC12077149, “Evolution of PqsE as a Pseudomonas aeruginosa-specific regulator of LuxR-type receptors: insights from Pseudomonas and Burkholderia” (mBio, 2025):

What was measured:
CepR [1] = biological target: T1, CepR (Burkholderia cepacia, UniProt Q9AM51); experiment: protein solubilization in E. coli, SDS-PAGE; type: cell-based; conditions: AHL added at induction
T1 construct: gene CO711_26440; untagged full-length, in E. coli (arabinose-inducible with pcepI-luxCDABE reporter; pET-DUET for solubility)
T1 sequence (Q9AM51 entry or part of it): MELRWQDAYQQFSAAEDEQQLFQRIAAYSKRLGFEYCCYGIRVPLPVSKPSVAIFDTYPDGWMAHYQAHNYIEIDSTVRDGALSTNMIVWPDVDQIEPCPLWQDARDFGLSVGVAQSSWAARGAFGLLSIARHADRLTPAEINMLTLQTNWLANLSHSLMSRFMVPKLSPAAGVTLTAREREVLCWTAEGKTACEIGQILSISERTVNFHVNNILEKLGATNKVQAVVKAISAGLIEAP

CepR [2] = biological target: T1, CepR; experiment: E. coli pcepI-lux reporter; protein solubilization; type: cell-based; conditions: 10 µM AHL in reporter; agonist
HhqE^Bc [3] = test system: T2, HhqE^Bc; experiment: fluorescence hydrolysis assay (ex […] / em […] nm); type: biochemical, Burkholderia cepacia; conditions: 50 mM Tricine, 0.01% Triton X-100; 2 µM enzyme; substrate up to 8 µM
T2 construct: 6xHis-tagged, E. coli BL21(DE3), Ni-NTA and SEC; monomer (~32 kDa by SEC)

HhqE^Bc [4] = test system: T2, HhqE^Bc; experiment: thiol release with Ellman's reagent, A412; type: biochemical, Burkholderia cepacia; conditions: 0.1 M Tris-HCl pH 8.0, 2 mM DTNB; 2 µM enzyme; substrate up to 1 mM
Source text: thiol release with Ellman's reagent, A412 on HhqE^Bc

Structure (SMILES)	protein solubilization in E. coli, SDS-PAGE (CepR [1])	E. coli pcepI-lux reporter; protein solubilization (CepR [2])	further results
CCCCCC(=O)N[C@H]1CCOC1=O [C6HSL]	C6HSL, C8HSL, C10HSL, and 3OC12HSL—were sufficient for the solubilization of CepR		
CCCCCCCC(=O)N[C@H]1CCOC1=O [C8HSL]		CepR responded to its cognate ligand C8HSL and, to a lesser extent, C10HSL	
CCCC(=O)Oc1ccc2c(C)cc(=O)oc2c1 [MU-butyrate]			Km (HhqE^Bc [3]): 0.00016 mM
CC(=O)CC(=O)SCCNC(=O)CCNC(=O)[C@H](O)C(C)(C)COP(=O)(O)OP(=O)(O)OC[C@H]1O[C@@H](n2cnc3c(N)ncnc32)[C@H](O)[C@@H]1OP(=O)(O)O [Acetoacetyl-CoA]			Km (HhqE^Bc [4]): 7.5 ± 0.4 mM
CCCCCCCCCC(=O)CC(=O)N[C@H]1CCOC1=O [3OC12HSL]	C6HSL, C8HSL, C10HSL, and 3OC12HSL—were sufficient for the solubilization of CepR		
CCCCCCCCCC(=O)N[C@H]1CCOC1=O [C10HSL]		CepR responded to its cognate ligand C8HSL and, to a lesser extent, C10HSL	
